Laboratory results reported in patent US9670142B2, “1,3-diaminocyclopentane carboxamide derivatives” (Merck Patent GmbH, priority 2013, dated 2017).

biological target: human fatty acid synthase FASN (Homo sapiens (Human), UniProt P49327); assay: Biochemical activity testing of human fatty acid synthase FASN (NADPH fluorescence intensity enzyme assay); conditions: human recombinant full-length fatty acid synthase
Excerpt: Biochemical activity testing of human fatty acid synthase FASN
Fatty acid synthase FASN is a multifunctional enzyme with seven catalytic activities thereby synthesising long chain fatty acids especially palmitoyl-CoA in the presence of co-factor NADPH starting from the substrates acetyl-CoA and malonyl-CoA. The reductive synthesis is realized by the oxidation of NADPH to NADP. Since NADPH has a high fluorescence intensity quantum yield compared to NADP with excitation at 340 nm and emission at 460 nm, the reaction can be monitored via the decrease in fluorescence intensity. The biochemical FASN activity testing was performed as 384 well two-time-point kinetic fluorescence intensity assay format in Greiner low volume medium binding 384-well black microtiter plates in a total assay volume of 8 μl and was used for high throughput screen. In each well 3 μl 40 nM human recombinant full-length fatty acid synthase (produced in-house in SF9 cells) were dispensed in the following assay buffer: 50 mM potassium phosphate buffer pH 7.0, 0.005% (w/v) BSA, 2 mM Glutathione, 0.02% Tween-20. Then 2 μl of 200 μM NADPH in assay buffer were added, followed by the addition of the test compounds in 10 dilution concentrations starting with 30 μM (final concentration) to get a final DMSO content of 1% (v/v). The mixture was incubated for at least 15 min at room temperature. After the pre-incubation the enzymatic reaction was started by the addition of 2 μl substrate solution (80 μM acetyl-CoA, 240 μM malonyl-CoA). A first fluorescence intensity measurement (time point one) was performed with an Envision multimode reader (Perkin Elmer LAS Germany GmbH) at excitation wavelength 340 nm (lamp mode) and emission wavelength 460 nm. The reaction was incubated for 30 minutes at room temperature. After this the fluorescence intensity was measured again in the Envision using the same parameters as described above (second time point measurement). The data were analysed by subtracting the first time point measurement value from the second time point measurement value (after the enzymatic reaction). The differences of the emission signals were determined. These reflect directly the conversion rate of NADPH. The full value used was the inhibitor-free reaction. A pharmacological zero value was used like GSK837149A (Sigma-Aldrich) in a final concentration of 5-10 μM. The inhibitory values (IC50) were determined using either the program Symyx Assay Explorer® or Condosseo® from GeneData.

Sequence of human fatty acid synthase FASN (P49327 whole entry): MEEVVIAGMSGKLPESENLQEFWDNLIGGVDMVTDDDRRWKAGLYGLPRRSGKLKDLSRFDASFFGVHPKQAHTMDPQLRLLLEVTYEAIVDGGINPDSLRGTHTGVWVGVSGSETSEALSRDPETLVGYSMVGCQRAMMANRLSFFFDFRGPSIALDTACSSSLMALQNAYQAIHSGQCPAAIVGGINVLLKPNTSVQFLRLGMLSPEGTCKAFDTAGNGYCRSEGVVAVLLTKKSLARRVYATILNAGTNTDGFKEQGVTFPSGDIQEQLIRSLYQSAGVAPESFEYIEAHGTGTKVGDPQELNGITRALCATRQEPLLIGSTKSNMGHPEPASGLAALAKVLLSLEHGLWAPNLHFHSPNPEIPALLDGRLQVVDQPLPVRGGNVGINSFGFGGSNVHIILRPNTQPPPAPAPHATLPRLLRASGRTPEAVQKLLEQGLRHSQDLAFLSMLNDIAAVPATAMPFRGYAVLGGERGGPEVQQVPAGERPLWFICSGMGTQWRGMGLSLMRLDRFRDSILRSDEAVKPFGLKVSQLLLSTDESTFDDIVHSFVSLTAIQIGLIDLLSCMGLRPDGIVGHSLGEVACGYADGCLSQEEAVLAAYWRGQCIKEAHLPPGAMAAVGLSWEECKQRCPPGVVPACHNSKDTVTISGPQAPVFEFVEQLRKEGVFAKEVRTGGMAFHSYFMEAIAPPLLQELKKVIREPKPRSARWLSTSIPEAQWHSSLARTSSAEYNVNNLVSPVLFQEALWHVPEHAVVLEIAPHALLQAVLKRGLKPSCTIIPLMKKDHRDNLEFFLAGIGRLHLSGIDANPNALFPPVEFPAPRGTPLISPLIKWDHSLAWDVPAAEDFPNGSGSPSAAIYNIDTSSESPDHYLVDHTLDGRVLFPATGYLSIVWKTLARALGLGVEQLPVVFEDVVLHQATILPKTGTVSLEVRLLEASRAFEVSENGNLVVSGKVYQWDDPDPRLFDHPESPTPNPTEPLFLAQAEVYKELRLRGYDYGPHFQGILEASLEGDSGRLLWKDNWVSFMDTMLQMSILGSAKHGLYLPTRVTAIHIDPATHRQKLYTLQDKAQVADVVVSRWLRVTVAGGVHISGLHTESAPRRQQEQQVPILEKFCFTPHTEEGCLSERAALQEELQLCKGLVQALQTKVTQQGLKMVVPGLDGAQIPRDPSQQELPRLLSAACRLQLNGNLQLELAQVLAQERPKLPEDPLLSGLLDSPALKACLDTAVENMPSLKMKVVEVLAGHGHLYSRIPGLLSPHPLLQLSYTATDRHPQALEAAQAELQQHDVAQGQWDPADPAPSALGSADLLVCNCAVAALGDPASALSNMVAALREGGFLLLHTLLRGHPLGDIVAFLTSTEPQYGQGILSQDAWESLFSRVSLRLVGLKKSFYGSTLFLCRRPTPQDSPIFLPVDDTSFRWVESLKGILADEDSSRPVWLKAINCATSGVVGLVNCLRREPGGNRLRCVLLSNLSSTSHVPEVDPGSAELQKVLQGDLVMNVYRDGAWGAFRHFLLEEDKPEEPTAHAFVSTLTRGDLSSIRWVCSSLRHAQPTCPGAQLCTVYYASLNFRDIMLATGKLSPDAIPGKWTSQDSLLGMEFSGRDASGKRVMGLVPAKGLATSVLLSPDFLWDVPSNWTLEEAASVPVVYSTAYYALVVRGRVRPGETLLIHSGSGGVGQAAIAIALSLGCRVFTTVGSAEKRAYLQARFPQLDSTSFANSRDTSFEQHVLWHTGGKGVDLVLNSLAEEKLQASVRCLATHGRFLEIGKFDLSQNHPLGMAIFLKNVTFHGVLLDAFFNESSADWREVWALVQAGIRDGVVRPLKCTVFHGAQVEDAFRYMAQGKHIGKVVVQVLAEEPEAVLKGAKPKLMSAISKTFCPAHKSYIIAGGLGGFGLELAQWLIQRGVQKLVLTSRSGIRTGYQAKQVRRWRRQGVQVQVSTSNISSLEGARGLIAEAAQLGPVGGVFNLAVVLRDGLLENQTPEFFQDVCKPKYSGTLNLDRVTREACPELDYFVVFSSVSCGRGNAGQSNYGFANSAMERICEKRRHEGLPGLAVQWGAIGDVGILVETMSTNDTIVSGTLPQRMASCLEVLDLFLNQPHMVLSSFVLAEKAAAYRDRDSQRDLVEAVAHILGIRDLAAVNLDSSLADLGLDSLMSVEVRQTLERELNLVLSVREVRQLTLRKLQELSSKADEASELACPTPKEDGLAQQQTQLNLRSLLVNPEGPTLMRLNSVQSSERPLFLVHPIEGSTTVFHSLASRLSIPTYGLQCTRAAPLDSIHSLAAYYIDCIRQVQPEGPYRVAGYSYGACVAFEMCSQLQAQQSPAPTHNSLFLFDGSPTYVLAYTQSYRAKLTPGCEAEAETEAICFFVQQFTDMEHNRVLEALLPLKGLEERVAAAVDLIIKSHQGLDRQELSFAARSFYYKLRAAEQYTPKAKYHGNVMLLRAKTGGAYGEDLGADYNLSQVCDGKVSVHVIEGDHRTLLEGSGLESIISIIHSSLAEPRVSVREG

Compound | IC50
CCC(=O)N[C@H]1CC[C@@H](N(C)C(=O)c2ccc(-c3ccc(C(C)C)cc3)cc2)C1 [Compound A96, 4′-isopropyl-biphenyl-4-carboxylic acid methyl-((1R,3S)-3-propionylamino-cyclopentyl)-amide] | 0.3 to 3 µM
CCC(=O)N[C@H]1CC[C@@H](N(C)C(=O)c2ccc(-c3cn4cccnc4n3)cc2)C1 [Compound A10, 4-imidazo[1,2-a]pyrimidin-2-yl-N-methyl-N-((1R,3S)-3-propionylamino-cyclopentyl)-benzamide] | < 0.3 µM
CN(C(=O)c1ccc(-c2nc3ccccc3o2)cc1)[C@@H]1CC[C@H](NC(=O)Cc2ccccc2)C1 [Compound A23, 4-benzoxazol-2-yl-N-methyl-N-((1R,3S)-3-phenylacetylamino-cyclopentyl)-benzamide] | < 0.3 µM
CCC(=O)N[C@H]1CC[C@@H](N(C)C(=O)c2ccc(-c3nc4ccccc4o3)cc2)C1 [Compound A1, 4-benzoxazol-2-yl-N-methyl-N-((1R,3S)-3-propionylamino-cyclopentyl)-benzamide] | < 0.3 µM
CCC(=O)N[C@H]1CC[C@@H](N(C)C(=O)c2ccc(-c3ccc4[nH]ncc4c3C)cc2)C1 [Compound A126, N-methyl-4-(4-methyl-1H-indazol-5-yl)-N-((1R,3S)-3-propionylamino-cyclopentyl)-benzamide] | < 0.3 µM
CCC(=O)N[C@H]1CC[C@@H](N(C)C(=O)c2ccc(-c3nc4ccccc4n3C)cc2)C1 [Compound A123, N-methyl-4-(1-methyl-1H-benzimidazol-2-yl)-N-((1R,3S)-3-propionylamino-cyclopentyl)-benzamide] | < 0.3 µM
CCC(=O)N[C@H]1CC[C@@H](N(C)C(=O)c2ccc(-c3ccc(OC)cc3C)cc2)C1 [Compound A65, 4′-methoxy-2′-methyl-biphenyl-4-carboxylic acid methyl-((1R,3S)-3-propionylamino-cyclopentyl)-amide] | < 0.3 µM
CCC(=O)N[C@H]1CC[C@@H](N(C)C(=O)c2ccc(-c3ccc4[nH]ccc4c3F)nn2)C1 [Compound A137, 6-(4-fluoro-1H-indol-5-yl)-pyridazine-3-carboxylic acid methyl-((1R,3S)-3-propionylamino-cyclopentyl)-amide] | < 0.3 µM
CCC(=O)N[C@H]1CC[C@@H](N(C)C(=O)c2ccc(-c3ccc(-n4cccn4)cc3)cc2)C1 [Compound A68, 4′-pyrazol-1-yl-biphenyl-4-carboxylic acid methyl-((1R,3S)-3-propionylamino-cyclopentyl)-amide] | < 0.3 µM
CCC(=O)N[C@H]1CC[C@@H](N(C)C(=O)c2ccc(-c3ccc(C)cc3C)cc2)C1 [Compound A90, 2′,4′-dimethyl-biphenyl-4-carboxylic acid methyl-((1R,3S)-3-propionylamino-cyclopentyl)-amide] | < 0.3 µM
CC(=O)N[C@@H]1CC[C@@H](N(C)C(=O)c2ccc(-c3nc4ccccc4o3)cc2)C1 [Compound A166, N-((1R,3R)-3-acetylamino-cyclopentyl)-4-benzooxazol-2-yl-N-methyl-benzamide] | 3 to 50 µM
CCC(=O)N[C@H]1CC[C@@H](N(C)C(=O)c2cnc(-c3ccc4[nH]ccc4c3)cn2)C1 [Compound A132, 5-(1H-indol-5-yl)-pyrazine-2-carboxylic acid methyl-((1R,3S)-3-propionylamino-cyclopentyl)-amide] | < 0.3 µM
CCC(=O)N[C@H]1CC[C@@H](N(C)C(=O)c2ccc(-c3ccc4[nH]cc(C)c4c3)cc2)C1 [Compound A115, N-methyl-4-(3-methyl-1H-indol-5-yl)-N-((1R,3S)-3-propionylamino-cyclopentyl)-benzamide] | < 0.3 µM
CCC(=O)N[C@H]1CC[C@@H](N(C)C(=O)c2ccc(-c3ccc(F)cc3F)cc2)C1 [Compound A83, 2′,4′-difluoro-biphenyl-4-carboxylic acid methyl-((1R,3S)-3-propionylamino-cyclopentyl)-amide] | < 0.3 µM
CC(C)CCC(=O)N[C@H]1CC[C@@H](N(C)C(=O)c2ccc(-c3nc4ccccc4o3)cc2)C1 [Compound A19, 4-benzoxazol-2-yl-N-methyl-N-[(1R,3S)-3-(4-methyl-pentanoylamino)-cyclopentyl]-benzamide] | < 0.3 µM
CCC(=O)N[C@H]1CC[C@@H](N(C)C(=O)c2ccc(-c3ccc4[nH]nc(C)c4c3)cc2)C1 [Compound A100, N-methyl-4-(3-methyl-1H-indazol-5-yl)-N-((1R,3S)-3-propionylamino-cyclopentyl)-benzamide] | < 0.3 µM

Compound | IC50
CCC(=O)N[C@H]1CC[C@@H](N(C)C(=O)c2ccc(-c3ccc4c(c3)OCCO4)cc2)C1 [Compound A87, 4-(2,3-dihydro-benzo[1,4]dioxin-6-yl)-N-methyl-N-((1R,3S)-3-propionylamino-cyclopentyl)-benzamide] | < 0.3 µM
CCC(=O)N[C@H]1CC[C@@H](N(C)C(=O)c2ccc(-c3ccc4[nH]cc(CN)c4c3)cc2)C1 [Compound A130, 4-(3-aminomethyl-1H-indol-5-yl)-N-methyl-N-((1R,3S)-3-propionylamino-cyclopentyl)-benzamide] | < 0.3 µM
CCC(=O)N[C@H]1CC[C@@H](N(C)C(=O)c2ncc(-c3ccc4[nH]ccc4c3)cn2)C1 [Compound A131, 5-(1H-indol-5-yl)-pyrimidine-2-carboxylic acid methyl-((1R,3S)-3-propionylamino-cyclopentyl)-amide] | < 0.3 µM
CCC(=O)N[C@H]1CC[C@@H](N(C)C(=O)c2ccc(-c3ccc(Cl)c(F)c3)cc2)C1 [Compound A86, 4′-chloro-3′-fluoro-biphenyl-4-carboxylic acid methyl-((1R,3S)-3-propionylamino-cyclopentyl)-amide] | < 0.3 µM
CCC(=O)N[C@H]1CC[C@@H](N(C)C(=O)c2ccc(-c3nc4ccc(F)cc4o3)cc2)C1 [Compound A127, 4-(6-fluoro-benzoxazol-2-yl)-N-methyl-N-((1R,3S)-3-propionylamino-cyclopentyl)-benzamide] | < 0.3 µM
CCC(=O)N[C@H]1CC[C@@H](N(C)C(=O)c2ccc(-c3ccc4[nH]ncc4c3)cc2)C1 [Compound A84, 4-(1H-indazol-5-yl)-N-methyl-N-((1R,3S)-3-propionylamino-cyclopentyl)-benzamide] | < 0.3 µM
C[C@H](O)C(=O)N[C@H]1CC[C@@H](N(C)C(=O)c2ccc(-c3nc4ccccc4o3)cc2)C1 [Compound A37, 4-benzoxazol-2-yl-N-[(1R,3S)-3-((S)-2-hydroxy-propionylamino)-cyclopentyl]-N-methyl-benzamide] | < 0.3 µM
CCC(=O)N[C@H]1CC[C@@H](N(C)C(=O)c2ccc(-c3ccc(C(=O)NC)cc3)cc2)C1 [Compound A78, biphenyl-4,4′-dicarboxylic acid 4′-methylamide 4-[methyl-((1R,3S)-3-propionylamino-cyclopentyl)-amide]] | < 0.3 µM
CCC(=O)N[C@@H]1CC[C@@H](N(C)C(=O)c2ccc(-c3nc4ccccc4o3)cc2)C1 [Compound A165, 4-benzoxazol-2-yl-N-methyl-N-((1R,3R)-3-propionylamino-cyclopentyl)-benzamide] | 3 to 50 µM
CCC(=O)N[C@H]1CC[C@@H](N(C)C(=O)c2cnc(-c3ccc4[nH]ccc4c3F)c(F)c2)C1 [Compound A143, 5-fluoro-6-(4-fluoro-1H-indol-5-yl)-N-methyl-N-((1R,3S)-3-propionylamino-cyclopentyl)-nicotinamide] | < 0.3 µM
CN(C)CC(=O)N[C@H]1CC[C@@H](N(C)C(=O)c2ccc(-c3nc4ccccc4o3)cc2)C1 [Compound A36, 4-benzoxazol-2-yl-N-[(1R,3S)-3-(2-dimethylamino-acetylamino)-cyclopentyl]-N-methyl-benzamide] | 0.3 to 3 µM
CCC(=O)N[C@H]1CC[C@@H](N(C)C(=O)c2ccc(-c3ccc(OC)cc3OC)cc2)C1 [Compound A88, 2′,4′-dimethoxy-biphenyl-4-carboxylic acid methyl-((1R,3S)-3-propionylamino-cyclopentyl)-amide] | < 0.3 µM
CN(C(=O)c1ccc(-c2nc3ccccc3o2)cc1)[C@@H]1CC[C@H](NC(=O)C(F)(F)C(F)(F)F)C1 [Compound A25, 4-benzoxazol-2-yl-N-methyl-N-[(1R,3S)-3-(2,2,3,3,3-pentafluoro-propionylamino)-cyclopentyl]-benzamide] | 0.3 to 3 µM
CC(=O)N[C@H]1CC[C@@H](N(C)C(=O)c2ccc(-c3nc4ccccc4o3)cc2)C1 [Compound A18, N-((1R,3S)-3-acetylamino-cyclopentyl)-4-benzooxazol-2-yl-N-methyl-benzamide] | < 0.3 µM
CCC(=O)N[C@H]1CC[C@@H](N(C)C(=O)c2ccc(-c3ccc(OC(F)F)cc3)cc2)C1 [Compound A85, 4′-difluoromethoxy-biphenyl-4-carboxylic acid methyl-((1R,3S)-3-propionylamino-cyclopentyl)-amide] | < 0.3 µM
